Experiments:
[1] = test system: HL-60 strain; assay: Viable cell counts (Trypan blue staining), HL-60 strain; assay type: cell-based; conditions: vs untreated
Method: (§1) Specifically, cells plated such that the density thereof became 1×10^4 cells/3.5 cm well for one plate (6 wells/plate) for each cell strain were cultured for one night in a culture solution having the same composition as those of the culture solutions described in the reference examples. After culturing of 1 well out of the 6 wells was completed, Trypan blue staining was performed on the 1 well, and viable cell counts were counted. The remaining 5 wells were cultured after exchanging the culture solution with a liquid mixture of a Lipofectamine (registered trademark) reagent (12.5 μL/well) and a culture solution (2 mL/well) of which the shRNA concentration became 2.5 μg/well. Then, Trypan blue staining was performed on 1 well 24 hours after the exchange of a culture medium, 1 well 48 hours after the exchange of a culture medium, and the remaining 1 well 72 hours after the exchange of a culture medium, and the viable cell counts were counted. As a control, the viable cell counts were measured (untreated) by performing the culturing similarly to the above except that a culture medium was exchanged with a culture solution to which no shRNA was added.
(§2) Specifically, the viable cell counts were measured after culturing the cells similarly to Example 1 except that a 5 μM culture solution containing a control peptide, a peptide 1, or a peptide 2 was used instead of the culture solution (2 mL/well) of which the shRNA concentration was 2.5 μg/well. The viable cell counts were measured (untreated) by performing the culturing similarly to Example 1 using a culture solution containing no peptide 2, as a control.

[2] = test system: K562 strain; assay: Viable cell counts (Trypan blue staining), K562 strain; assay type: cell-based; conditions: vs untreated
Method: as §1, §2

[3] = test system: KATO-III strain; assay: Viable cell counts (Trypan blue staining), KATO-III strain; assay type: cell-based; conditions: shRNA 2.5 μg/well, vs untreated
Method: as §1

[4] = test system: OCUM-1 strain; assay: Viable cell counts (Trypan blue staining), OCUM-1 strain; assay type: cell-based; conditions: shRNA 2.5 μg/well, vs untreated
Method: as §1

[5] = test system: LIX1L genes; assay: RT-PCR of LIX1L gene expression after shRNA treatment; assay type: cell-based, human; conditions: HL-60, K562, KATO-III and OCUM-1 strains; shRNA 2.5 μg/well; after 72 hours
Method: In the RT-PCR, first, RNA was extracted and purified from the collected cells using RNeasy Mini Kit (manufactured by QIAGEN). The concentration of total RNA was measured using a spectrophotometer. A reverse transcription reaction was performed using First Strand cDNA Synthesis Kit (manufactured by Roche Life Science) for RT-PCR (AMV), for synthesizing cDNA, in 20 μL of a reaction solution containing 1 μg of total RNA and a random primer for 10 minutes at 25° C., subsequently for 45 minutes at 42° C., and then for 2 minutes at 95° C., to deactivate reverse transcriptase. In all PCRs, TaqMan (registered trademark) polymerase (manufactured by Life Technologies Ltd.) was used. […] The signal intensity of a band of LIX1L in an ethidium bromide staining image was measured using densitometry and a relative value of the signal intensity was calculated. In addition, in all quantitative PCR reactions, SYBR (registered trademark) Green I was used. Quantitative determination was performed in 25 μL of a reaction solution containing the synthesized cDNA and a LIX1L primer using an ABI PRISM 7700 Sequence detector (manufactured by Perkin-Elmer/Applied Biosystems). […]

[6] = test system: RPMI8226 strain; assay: Viable cell counts (Trypan blue staining), RPMI8226 strain; assay type: cell-based; conditions: 5 μM peptide, up to 72 hours, vs untreated
Method: as §1, with “added. […]” for “added.”

[7] = test system: HL-60 strain; assay: MTT assay, HL-60 strain; assay type: cell-based; conditions: peptide 0 μM to 100 μM, 72 hours
Method: (§3) Specifically, first, cells plated in a 96-well microplate such that the density thereof became 5×10^3 cells/well were cultured for one night in a culture solution having the same composition as those in the reference examples. Thereafter, the culture solution was exchanged with 100 μL of a culture solution of which the concentration of peptides is 0 μM to 100 μM for culturing for 72 hours. After the culturing, an MTT-containing PBS solution was added to the culture solution, and the mixture was incubated for 4 hours. Then, formazan which was generated by putting 100 μL of isopropanol (containing 34 (v/v) % of hydrochloric acid) into each of the wells was dissolved. The absorbance of each of the wells of the microplate at 570 nm was measured using a microplate reader. As controls, culturing was performed in the same manner except that no peptide was added to the strains, an MTT assay was performed thereon, and the absorbance at 570 nm was measured (untreated).
(§4) In the method for measuring the viable cell counts, cells were cultured for 3 days similarly to Example 1 except that a 25 μM (10 μM for an HL-60 strain, a K562 strain, and a U937 strain) culture solution containing a control peptide or a peptide 1 was used, and the viable cell counts were measured. As a comparison, culturing was performed similarly to the above using a culture solution containing no peptide, and the viable cell counts were measured (untreated).
(§5) In addition, in the method for performing an MTT assay, cells were cultured for 72 hours similarly to Example 2 except that a peptide to be added to a strain was set to a control peptide or a peptide 1 at 25 μM (10 μM for an HL-60 strain, a K562 strain, and a U937 strain), an MTT assay was performed thereon, and the absorbance at 570 nm was measured. As a comparison, culturing was performed similarly to the above using a culture solution containing no peptide, and the MTT assay was performed thereon (untreated).

[8] = test system: K562 strain; assay: MTT assay, K562 strain; assay type: cell-based; conditions: 72 hours
Method: as §3
(§6) Specifically, the cells were cultured for 72 hours similarly to Example 2 except that a peptide to be added to a cell strain was set to peptide 1, 3, or 4, or a control peptide, an MTT assay was performed thereon, and the absorbance at 570 nm was measured.
as §4, §5
(§7) Specifically, the cells were cultured for 72 hours similarly to Example 2 except that a peptide to be added to a cell was set to a peptide 1, 2, 5, or 6, MTT assays were performed thereon, and the absorbance at 570 nm was measured. As a comparison, culturing was performed similarly to the above using a culture solution containing no peptide, and the MTT assay was performed thereon (untreated).
as §7, with “that peptides” for “that a peptide”, “to” for “to a”, “cell strains were” for “cell was”, “to peptides 7 to 14,” for “to a peptide 1, 2, 5, or 6,”
Specifically, the cells were cultured for 72 hours similarly to Example 2 except that a peptide to be added to a cell strain was set to a peptide 15 or 16, an MTT assay was performed thereon, and the absorbance at 570 nm was measured. As a comparison, culturing was performed similarly to the above using a culture solution containing no peptide, and the MTT assay was performed thereon (untreated).

[9] = test system: RPMI8226 strain; assay: MTT assay, RPMI8226 strain; assay type: cell-based; conditions: peptide 0 μM to 100 μM, 72 hours
Method: as §3, §6

[10] = test system: KATO-III strain; assay: MTT assay, KATO-III strain; assay type: cell-based; conditions: peptide 0 μM to 100 μM, 72 hours
Method: as §3

[11] = test system: OCUM-1 strain; assay: MTT assay, OCUM-1 strain; assay type: cell-based; conditions: peptide 0 μM to 100 μM, 72 hours
Method: as §3

[12] = test system: 293 FLG; assay: MTT assay, 293 FLG cells; assay type: cell-based; conditions: 72 hours, peptide concentrations up to 250 μM
Method: as §3, with “Thereafter, the culture solution was exchanged with 100 μL of a culture solution of which the concentration of peptides is 0 μM to 100 μM for culturing for 72 hours.” left out
as §4, §5, §7
(§8) Specifically, the cells were cultured for 72 hours similarly to Example 2 except that peptides to be added to cell strains were set to peptides 7 to 14, MTT assays were performed thereon, and the absorbance at 570 nm was measured. […]
(§9) Specifically, the cells were cultured for 72 hours similarly to Example 2 except that a peptide to be added to a cell strain was set to a peptide 15 or 16, an MTT assay was performed thereon, and the absorbance at 570 nm was measured. […]

[13] = test system: 293 FLG/LIX1L; assay: MTT assay, 293 FLG/LIX1L cells; assay type: cell-based; conditions: 72 hours, peptide concentrations up to 250 μM
Method: as §3, with “Thereafter, the culture solution was exchanged with 100 μL of a culture solution of which the concentration of peptides is 0 μM to 100 μM for culturing for 72 hours.” left out
as §4, §5, §7, §8, §9

[14] = test system: MKN45 strain; assay: MTT assay, MKN45 strain; assay type: cell-based; conditions: 72 hours, peptide concentrations up to 250 μM
Method: as §3, with “Thereafter, the culture solution was exchanged with 100 μL of a culture solution of which the concentration of peptides is 0 μM to 100 μM for culturing for 72 hours.” left out
as §4, §5, §7, §8, §9

[15] = test system: NUGC-4 strain; assay: MTT assay, NUGC-4 strain; assay type: cell-based; conditions: 72 hours, peptide concentrations up to 250 μM
Method: as §3, with “Thereafter, the culture solution was exchanged with 100 μL of a culture solution of which the concentration of peptides is 0 μM to 100 μM for culturing for 72 hours.” left out
as §4, §5, §7, §8, §9

[16] = shRNA 2.5 μg/well, after 48 hours and 72 hours
[17] = shRNA 2.5 μg/well, until 24 hours

| Substance | viable cell counts [1, 16] | viable cell counts [1, 17] | viable cell counts [2, 16] | viable cell counts [2, 17] | viable cell counts ([3]; after 48 hours and 72 hours) | viable cell counts ([3]; until 24 hours) | viable cell counts ([4]; after 48 hours and 72 hours) | viable cell counts ([4]; until 24 hours) | expression of LIX1L genes (RT-PCR) [5] | also measured |
| --- | --- | --- | --- | --- | --- | --- | --- | --- | --- | --- |
| LIX1L shRNA #2: shRNA with respect to LIX1L genes; base sequence shown in FIG. 5B (DNA GAGTCCCGTGGTGCTGACTTAATTCAAGAGATTAAGTCAGCACCACGGGACTCTTTTTT) | decreased more clearly than that of the untreated cells | no particular difference | decreased more clearly than that of the untreated cells | no particular difference | decreased more clearly than that of the untreated cells | no particular difference | decreased more clearly than that of the untreated cells | no particular difference | hardly observed | – |
| YGRKKRRQRRR-X-CYVTLPGGSC-NH2 (YGRKKRRQRRRXCYVTLPGGSC; ε-aminocaproic acid linker; C-terminal amide; peptide 2) | – | – | – | – | – | – | – | – | – | viable cell counts ([1]; 5 μM peptide, after 72 hours): the same as those in an untreated case; viable cell counts ([2]; 5 μM peptide, after 72 hours): the same as those in an untreated case; viable cell counts [6]: the same as those in an untreated case; absorbance at 570 nm (MTT assay), influence on cell proliferation [7]: no particular change in the absorbance at 570 nm; cell proliferation (MTT assay, absorbance at 570 nm) ([8]; peptide concentrations up to 250 μM): not inhibited; absorbance at 570 nm (MTT assay), influence on cell proliferation ([8]; peptide 0 μM to 100 μM): no particular change in the absorbance at 570 nm; absorbance at 570 nm (MTT assay), influence on cell proliferation [9]: no particular change in the absorbance at 570 nm; absorbance at 570 nm (MTT assay), influence on cell proliferation [10]: no particular change in the absorbance at 570 nm; absorbance at 570 nm (MTT assay), influence on cell proliferation [11]: no particular change in the absorbance at 570 nm; cell proliferation (MTT assay, absorbance at 570 nm) [12]: not inhibited; cell proliferation (MTT assay, absorbance at 570 nm) [13]: not inhibited; cell proliferation (MTT assay, absorbance at 570 nm) [14]: not inhibited; cell proliferation (MTT assay, absorbance at 570 nm) [15]: not inhibited |
| LIX1L shRNA #1: shRNA with respect to LIX1L genes; base sequence shown in FIG. 5A (DNA GAGGAGGTGTTGGCTCATTATTTTCAAGAGAAATAATGAGCCAACACCTCCTCTTTTTT) | decreased more clearly than that of the untreated cells | no particular difference | decreased more clearly than that of the untreated cells | no particular difference | decreased more clearly than that of the untreated cells | no particular difference | decreased more clearly than that of the untreated cells | no particular difference | hardly observed | – |

From patent publication US9676820B2, “Method for inhibiting proliferation of high LIX1L-expressing tumor cell, and tumor cell proliferation-inhibiting peptide” (National University Corporation Hamamatsu University School …, priority 2013, dated 2017)
